{"source": "patent US7977362B2", "about": "“Alpha-(N-benzenesulfonamido)cycloalkyl derivatives” (Bristol-Myers Squibb Company, priority 2009, dated 2011)"}
{"system": "Aβ formation (γ-secretase) in H4 cells stably transfected to overexpress the HPLAP-APP fusion protein", "assay": "In vitro assay based on the inhibition of Aβ formation in cultured cells", "assay_type": "cell-based, human", "settings": "H4 cells overexpressing HPLAP-APP, 18 hrs incubation at 37° C., Aβ in supernatant by time-resolved fluorescence; numeric values", "procedure": "(§1) Cultured human cell lines, such as HEK293 and H4 cells, which express APP and γ-secretase activity or transfected derivative cell lines that overexpress wild-type APP, mutant APP, or APP fusion proteins will secrete Aβ peptides into the culture media that can be quantified as previously outlined (Dovey, H. et al., J. Neurochem., 76:173-181 (2001)). The incubation of these cultured cells with γ-secretase inhibitors decreases the production of Aβ peptides. For instance, H4 cells stably transfected to overexpress the HPLAP-APP fusion protein described above were grown as above, detached, and adjusted to 2×10^5 cells/ml. 100 μl of the resulting suspension was then added to each well of a 96-well plate. After 4 hrs, the media was removed and replaced with 100 μl serum-free media containing various dilutions of the test compound. Plates were then incubated for 18 hrs at 37° C. and a 100 μl aliquot of the tissue culture supernatant was removed for determination of Aβ levels using time-resolved fluorescence of the homogenous sample as outlined above. Alternately, the other methods described above for Aβ determination could be used. The extent of Aβ inhibition was used to calculate the IC50 value for the test compound.\n(§2) In the table, an inhibitory concentration (IC50) of less than or equal to 50 nM is represented by +++; between 50 nM and 500 nM by ++; between 500 nM and 5000 nM by +.", "units": {"IC50": "nM"}}
{"smiles": "O=S(=O)(c1ccc(Cl)cc1)N(Cc1cc(F)c(-c2ncon2)cc1F)[C@@H]1CCCC[C@H]1CO", "note": "(relative stereo) [Compound 11, 4-Chloro-N-(2,5-difluoro-4-(1,2,4-oxadiazol-3-yl)benzyl)-N-(trans-2-(hydroxymethyl)cyclohexyl)benzenesulfonamide]", "IC50": 0.32}
{"smiles": "O=S(=O)(c1ccc(Cl)cc1)N(Cc1cc(F)c(-c2ncon2)cc1F)[C@@H]1CCCC[C@H]1CO", "note": "[Compound 21, 4-Chloro-N-(2,5-difluoro-4-(1,2,4-oxadiazol-3-yl)benzyl)-N-((1R,2R)-2-(hydroxymethyl)cyclohexyl)benzenesulfonamide]", "IC50": 0.15}
{"system": "Aβ formation (γ-secretase) in H4 cells stably transfected to overexpress the HPLAP-APP fusion protein", "assay": "In vitro assay based on the inhibition of Aβ formation in cultured cells", "assay_type": "cell-based, human", "settings": "Homo sapiens, 18 h, H4 cells overexpressing HPLAP-APP, 18 hrs incubation at 37° C., Aβ in supernatant by time-resolved fluorescence; class symbols", "procedure": "as §1, §2", "units": {"IC50": "nM"}}
{"smiles": "O=S(=O)(c1ccc(Cl)s1)N(Cc1ccc(-c2ncco2)c(F)c1F)[C@@H]1CCCC[C@H]1CO", "note": "(relative stereo) [Compound 13, 5-Chloro-N-(2,3-difluoro-4-(oxazol-2-yl)benzyl)-N-(trans-2-(hydroxymethyl)cyclohexyl)thiophene-2-sulfonamide]", "IC50": "≤ 50"}
{"smiles": "O=S(=O)(N[C@@H]1CCCC[C@H]1CO)c1ccc(Cl)cc1", "note": "(single isomer, unassigned) [Compound 15]", "IC50": "500 to 5000"}
{"smiles": "O=S(=O)(c1ccc(Cl)cc1)N(Cc1ccc(-c2ncon2)cc1)[C@@H]1CCC[C@H]1CO", "note": "(relative stereo) [Compound 2, N-(4-(1,2,4-Oxadiazol-3-yl)benzyl)-4-chloro-N-(trans-2-(hydroxymethyl)cyclopentyl)benzenesulfonamide]", "IC50": "50 to 500"}
{"smiles": "O=S(=O)(c1ccc(Cl)cc1)N(Cc1ccc(-c2ncon2)cc1)[C@@H]1CCCC[C@H]1CO", "note": "(relative stereo) [Compound 5, N-(4-(1,2,4-Oxadiazol-3-yl)benzyl)-4-chloro-N-(trans-2-(hydroxymethyl)cyclohexyl)benzenesulfonamide]", "IC50": "≤ 50"}
